These results are taken from article PMC3976407, “Inhibition of Fatty Acid Binding Proteins Elevates Brain Anandamide Levels and Produces Analgesia” (PLoS ONE, 2014).

For data set [1], the system named is acetic acid-induced writhing in mice. Put plainly: Acetic acid-induced writhing. Particulars: for Effect upon acetic acid-induced writhing: 20 mg/kg, subcutaneous, 60 min before acetic acid. The class given is in vivo, mouse. The protocol: Mice were acclimated to the laboratory environment for at least two hours and were habituated to the testing chamber for 30 min prior to acetic acid challenge. SBFI26, SBFI50, SBFI60, and SBFI62 (20 mg/kg) were administered via the subcutaneous route 60 min before acetic acid. Rimonabant, SR144528, GW6471, and naloxone were given 10 min before the inhibitors via the subcutaneous route. The mice subsequently received an i.p. injection of acetic acid (0.6% in sterile saline, 10 μl/g) and were placed in observation chambers. Abdominal stretches (marked by extension of the body and hind limbs) were counted for 20 min starting at 5 min post-injection.
In general terms: Writhing tests count abdominal constrictions after an irritant is injected.

The subject of data set [2] is carrageenan-induced thermal hyperalgesia and paw edema in mice. The data set can be described thus: Carrageenan-induced paw edema and thermal hyperalgesia. Type of data set: in vivo, mouse. Particulars: 20 mg/kg, i.p. Here is the method: Paw edema was induced by injecting 1% λ-carrageenan (20 μl, in sterile saline) into the plantar surface of the left hind paw using a 30 gauge needle attached to a glass syringe (Hamilton Company). Paw diameters were measured before carrageenan injection and 4 or 24 hours after injection using digital electronic calipers (Fisher) and expressed to the nearest ± 0.01 mm. SBFI26, SBFI50, SBFI60, and SBFI62 were dissolved in DMSO:cremophor-EL:saline (4% DMSO:10% Cremophor-EL) and administered (20 mg/kg, i.p.) 60 min prior to injection of carrageenan. Receptor antagonists were injected 10 min before the inhibitors. Rimonabant and SR144528 (3 mg/kg, i.p.) were dissolved in ethanol:cremophor-EL:saline (1∶1∶18) while GW6471 (4 mg/kg, i.p.) was dissolved in DMSO:cremophor-EL:saline (2% DMSO:5% Cremophor-EL). Edema is reported as the change in paw diameter at 24 hr compared to the baseline. Thermal hyperalgesia was measured using the Hargreaves plantar apparatus (Ugo Basile) as previously reported.
On the technique in general: The carrageenan paw model is a standard test of acute inflammation.

Data set [3] deals with T1, FABP3 (Homo sapiens, UniProt P05413). Put plainly: NBD-stearate fluorescence displacement binding.
Procedure: (§1) Inhibitory constant (Ki) values were elucidated utilizing NBD-stearate fluorescence displacement as described previously [9], [31]. The tests were performed in 96-well plates containing inhibitors (0.1 – 50.0 μM), FABP, and NBD-stearate. Fluorescence intensity was measured with a FLUOstar OPTIMA spectrofluorometer with excitation and emission wavelengths of 460 and 544 nm, respectively.
Data set [4] relates to formalin-induced nociception in mice. The data set can be described thus: Formalin test. Particulars: 20 mg/kg, i.p.; for Effect upon first phase of formalin-induced nociception: first phase 0–5 min. The class given is in vivo, mouse. The protocol: Mice were habituated to the observation chamber (Plexiglas box, 25 cm×25 cm×25 cm) for 30 min prior to formalin injection. Mice were administered FABP inhibitors 60 min prior to formalin. The animals subsequently received an injection of formalin (2.5% in saline, 20 μl) into the plantar surface of the right hind paw using a 30 gauge needle and were immediately placed back into the observation chamber and nocifensive behavior (time spent licking or biting the paw) was recorded for 60 min. Nocifensive behavior was scored during the first phase (0–5 min) and the second phase (∼15–45 min) of the formalin test.

In data set [5] the target is T2, FABP7 (Homo sapiens, UniProt O15540). The data set can be described thus: NBD-stearate fluorescence displacement binding.
Procedure: as §1
In data set [6] the test system is rats subjected to CCI. The data set can be described thus: Rat neuropathic pain model (chronic constriction injury of the sciatic nerve). Type of data set: in vivo. To be noted: 20 mg/kg i.p. From the text: Male Fisher 344 rats were habituated and pre-injury evoked responses were obtained. The Hargreaves test was used to assess thermal hyperalgesia. Briefly, plexiglass enclosures were set atop a plexiglass platform and infrared source set at 50% power located under the platform was used as the heat stimulus (Ugo Basile). A 200 mW, 535 nm diode laser was mounted in an adjustable stand placed beneath the plexiglass platform, and was used as an alternative heat stimulus for some of the animals in this study. The latency time to hind paw lift during heating of the plantar surface was recorded. Five recordings were obtained on each hind paw with at least 2 min rest between measurements. The maximum time for exposure to the infrared or diode laser source was 30.5 s to avoid any possible tissue injury. For mechanical threshold measurements, the animal enclosures rested on a screen with mesh of 0.5 cm spacing. Following acclimation, an electronic von Frey Anesthesiometer (IITC Life Sciences) was applied with increasing pressure to the plantar surface of the hind paw until the animals lifted the hind paw. The number of grams of force applied by the probe to induce withdrawal was recorded. Five recordings were obtained on each hind paw with at least 3 min between measurements. For CCI surgeries, our procedure closely followed that reported previously. Briefly, each animal received an i.p. injection of ketamine/xylazine (75 mg/kg and 10 mg/kg, respectively). The hind leg was surgically prepped and the anesthetized animal placed prone on an sterile towel over a heating pad. The temperature was monitored rectally. A skin incision was made mid-thigh with a medium curved scalpel and then scissors were used to expose the sciatic nerve. Approximately 1 cm of the main trunk proximal to the trifuraction was isolated and 4 strands of 4-0 chromic gut were tied around the nerve ∼ 1 mm apart under magnification. In a modification of the original method, a 2-0 prolene strand was placed between the nerve and the gut to which the suture was tightened. The prolene strand was then removed. This prevented over tightening and reduced subsequent motor paralysis. The muscle layers were then reopposed and sutured, and surgical staples were used to close the skin. On post-injury days 7 through 10, heat and mechanical measurements were obained for the ipsilateral hindpaw of each CCI animal. Immediately following the post-injury measurements, animals were randomized and received i.p. injections of vehicle or 20 mg/kg SBI26 (DMSO:cremophor:sterile saline 1∶1∶2 by volume). Up to 0.8 ml of drug or vehicle was injected. The observer was blinded as to administration of drug or vehicle. Thermal and mechanical measurements were performed at 1 and 4 h post-injection. Data were normalized to pre-injury baseline measurements for each animal.

The target in data set [7] is T3, FABP5 (Homo sapiens, UniProt Q01469). The data set can be described thus: NBD-stearate fluorescence displacement binding. Particulars: averages ± S.E. of three independent experiments. Here is the method: Inhibitory constant (Ki) values were elucidated utilizing NBD-stearate fluorescence displacement as described previously, [31]. The tests were performed in 96-well plates containing inhibitors (0.1 – 50.0 μM), FABP, and NBD-stearate. Fluorescence intensity was measured with a FLUOstar OPTIMA spectrofluorometer with excitation and emission wavelengths of 460 and 544 nm, respectively.

Data set [8] deals with T3, FABP5. Further details: method as in PMID 22170058. To be noted: determined previously ref 9; cited from earlier work.
Data set [9] concerns the target T1, FABP3. Further details: method as in PMID 22170058. To be noted: determined previously ref 9; cited from earlier work.
Data set [10] concerns the target T2, FABP7. Further details: method as in PMID 22170058. To be noted: determined previously ref 9; cited from earlier work.
The subject of data set [11] is HeLa cells. The data set can be described thus: Cytotoxicity, MTT colorimetric assay. Type of data set: cell-based. Particulars: 24 hr incubation, n = 3. The protocol: Cytotoxicity of the FABP inhibitors SBFI26 and BMS309403 were examined using the MTT [3-(4,5-dimethylthiazol-2-yl)-2,5 diphenyl tetrazolium bromide] colorimetric assay. HeLa cells were seeded into 96-well plates (15,000 cells/well) and incubated for 24 hours at 37°C in DMEM supplemented with 10% FBS, penicillin (100 U/mL) and streptomycin (100 μg/mL). The cells were subsequently washed with PBS and treated with serum-free DMEM containing 10 nM to 1 mM SBFI26, BMS309403, or 5 mM hydrogen peroxide as a positive control. Following a 24 hr incubation, the cells were washed with PBS and treated with MTT (0.5 mg/mL in PBS) for 4 hrs. The cells were subsequently solubilized using DMSO and the absorbance was read at 562 nm in a microplate reader.

T3 sequence (Q01469 whole entry, species assumed): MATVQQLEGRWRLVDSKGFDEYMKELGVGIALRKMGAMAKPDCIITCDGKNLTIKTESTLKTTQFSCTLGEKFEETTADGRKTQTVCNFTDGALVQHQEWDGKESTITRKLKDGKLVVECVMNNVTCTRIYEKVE
T2 sequence (O15540 whole entry, species assumed): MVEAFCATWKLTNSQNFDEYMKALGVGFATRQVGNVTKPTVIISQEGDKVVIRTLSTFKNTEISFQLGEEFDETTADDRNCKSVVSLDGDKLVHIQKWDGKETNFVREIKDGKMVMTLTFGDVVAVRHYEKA
T1 sequence (P05413 whole entry, species assumed): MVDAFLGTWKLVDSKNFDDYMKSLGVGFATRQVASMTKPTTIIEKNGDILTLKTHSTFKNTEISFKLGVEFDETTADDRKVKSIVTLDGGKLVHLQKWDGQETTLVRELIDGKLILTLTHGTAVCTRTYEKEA

In the case of `O=C(Nc1cccnc1)N1CCC(Cc2cccc(Oc3ccc(C(F)(F)F)cn3)c2)CC1` [PF-3845, reference compound], the “Antinociceptive effects in the acetic acid test after pretreatment with CB1 antagonist rimonabant” value in [1] (rimonabant 3 mg/kg 10 min before inhibitor) is listed as “blocked”.

As to `O=C(O)C1C(c2ccccc2)C(C(=O)Oc2ccc3ccccc3c2)C1c1ccccc1` (stereo not drawn) [SBFI50, alpha-2,4-diphenylcyclobutane-1,3-dicarboxylic acid mono-2-naphthyl ester], the “Effect upon carrageenan-induced paw edema” value in data set [2] is listed as “reduced”. Further, in [2], the “Effect upon carrageenan-induced thermal hyperalgesia” value is on record as “reduced”. Further, the Ki in [3] is 3500 ± 300 nM; in data set [5], 600 ± 100 nM; in data set [7] it was 1300 ± 200 nM. Further, the “Effect upon first phase of formalin-induced nociception” value (from here on “Effect upon first phase”) in data set [4] is “reduced”. Moreover, the “Effect on mechanical thresholds in CCI rats” value in data set [6] (1 and 4 h) is “Neither compound altered”. Further, the “Effect on thermal hyperalgesia in CCI rats” value in data set [6] (measured 1 and 4 h post-injection) is listed as “without effect”. The “Effect upon acetic acid-induced writhing” value in [1] is recorded as “without effect”.

As to `CCCCCCC(CCCCCCCCCCC(=O)O)N(C)c1ccc([N+](=O)[O-])c2nonc12` (centres unmarked) [NBD-stearate, 12-N-methyl-(7-nitrobenz-2-oxa-1,3-diazo)aminostearicacid], the Kd in data set [8] was 160 nM; in data set [9] it was 180 nM; in data set [10], 220 nM.

Turning to `O=C(Nc1cccc2ccccc12)C1C(c2ccccc2)C(C(=O)Nc2cccc3ccccc23)C1c1ccccc1` (centres unmarked) [SBFI62, 2,4-diphenylcyclobutane-1,3-dicarboxylic acid di-1-naphthyl amide], in [2], the “Effect upon carrageenan-induced paw edema” value was “without effect”. In addition, in [2], the “Effect upon carrageenan-induced thermal hyperalgesia” value is recorded as “without effect”. Further, the Ki in [3] came out at 2600 ± 1100 nM; in [5], 6100 ± 500 nM; in data set [7], 3300 ± 700 nM. Moreover, in data set [4], the “Effect upon first phase” value was “without effect”. Moreover, the “Effect upon second phase of formalin-induced nociception” value in data set [4] (second phase ∼15–45 min) is given as “without effect”. In addition, the “Effect upon acetic acid-induced writhing” value in data set [1] is given as “without effect”.

Turning to `O=C(O)C1C(c2ccccc2)C(C(=O)Nc2cccc3ccccc23)C1c1ccccc1` (stereo not drawn) [SBFI60, alpha-2,4-diphenylcyclobutane-1,3-dicarboxylic acid mono-1-naphthyl amide], in data set [2], the “Effect upon carrageenan-induced paw edema” value is recorded as “without effect”. Also, in data set [2], the “Effect upon carrageenan-induced thermal hyperalgesia” value was “without effect”. Moreover, the values for the inhibition constant Ki in [3], in data set [5] and in data set [7] were more than 10000 nM, 300 nM and 1600 nM, respectively. Moreover, in data set [4], the “Effect upon first phase” value is given as “reduced”. Besides, the “Effect upon acetic acid-induced writhing” value in data set [1] is recorded as “without effect”.

On to `CCc1c(-c2ccccc2)c(-c2ccccc2)nn1-c1ccccc1-c1cccc(OCC(=O)O)c1` [BMS309403, reference compound], for which, in data set [11], the “Cytotoxicity _50 values” came to 11.3 ± 0.9 µM.

The term Ki denotes a dissociation constant, usually derived from enzyme kinetics or from competition with a known ligand. What is called Kd is the concentration at which binding is half-saturated.
